# Data: PubChem BioAssay (NCI)
#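 Compound exposure: 48 hours, 5 concentrations, 96-well plates. TGI is the concentration that stops growth completely.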
# Legend:
# Experiment in all cases: NCI anticancer screen, dose series, 48 h
# 786-0 renal = test system: 786-0 renal
# A498 renal = test system: A498 renal
# A549 NSCLC = test system: A549 NSCLC
# ACHN renal = test system: ACHN renal
# BT-549 breast = test system: BT-549 breast
# CAKI-1 renal = test system: CAKI-1 renal
# CCRF-CEM leukemia = test system: CCRF-CEM leukemia
# COLO 205 colon = test system: COLO 205 colon
# DU-145 prostate = test system: DU-145 prostate
# EKVX NSCLC = test system: EKVX NSCLC
# HCC-2998 colon = test system: HCC-2998 colon
# HCT-116 colon = test system: HCT-116 colon
# HCT-15 colon = test system: HCT-15 colon
# HL-60(TB) leukemia = test system: HL-60(TB) leukemia
# HOP-62 NSCLC = test system: HOP-62 NSCLC
# HOP-92 NSCLC = test system: HOP-92 NSCLC
# HS 578T breast = test system: HS 578T breast
# HT29 colon = test system: HT29 colon
# IGROV1 ovarian = test system: IGROV1 ovarian
# K-562 leukemia = test system: K-562 leukemia
# KM12 colon = test system: KM12 colon
# LOX IMVI melanoma = test system: LOX IMVI melanoma
# M14 melanoma = test system: M14 melanoma
# MALME-3M melanoma = test system: MALME-3M melanoma
# MCF7 breast = test system: MCF7 breast
# MDA-MB-231 breast = test system: MDA-MB-231 breast
# MDA-MB-435 = test system: MDA-MB-435
# MDA-N = test system: MDA-N
# MOLT-4 leukemia = test system: MOLT-4 leukemia
# NCI-H226 lung = test system: NCI-H226 lung
# NCI-H23 lung = test system: NCI-H23 lung
# NCI-H460 lung = test system: NCI-H460 lung
# NCI-H522 lung = test system: NCI-H522 lung
# NCI/ADR-RES ovarian = test system: NCI/ADR-RES ovarian
# OVCAR-3 ovarian = test system: OVCAR-3 ovarian
# OVCAR-4 ovarian = test system: OVCAR-4 ovarian
# OVCAR-5 ovarian = test system: OVCAR-5 ovarian
# OVCAR-8 ovarian = test system: OVCAR-8 ovarian
# PC-3 prostate = test system: PC-3 prostate
# RPMI-8226 leukemia = test system: RPMI-8226 leukemia
# RXF 393 renal = test system: RXF 393 renal
# SF-268 CNS = test system: SF-268 CNS
# SF-295 CNS = test system: SF-295 CNS
# SF-539 CNS = test system: SF-539 CNS
# SK-MEL-2 melanoma = test system: SK-MEL-2 melanoma
# SK-MEL-28 melanoma = test system: SK-MEL-28 melanoma
# SK-MEL-5 melanoma = test system: SK-MEL-5 melanoma
# SK-OV-3 ovarian = test system: SK-OV-3 ovarian
# SN12C renal = test system: SN12C renal
# SNB-19 CNS = test system: SNB-19 CNS
# SNB-75 CNS = test system: SNB-75 CNS
# SR leukemia = test system: SR leukemia
# SW-620 colon = test system: SW-620 colon
# T-47D breast = test system: T-47D breast
# TK-10 renal = test system: TK-10 renal
# U251 CNS = test system: U251 CNS
# UACC-257 melanoma = test system: UACC-257 melanoma
# UACC-62 melanoma = test system: UACC-62 melanoma
# UO-31 renal = test system: UO-31 renal
compound,measurement,setting,value
O=C(Nc1nnc(-c2ccc(Cl)cc2)o1)C(SC(=S)N1CCCCC1)c1ccccc1 (centres undefined),TGI,786-0 renal,> 78.2 µM
same,TGI,A498 renal,44.4 µM
same,TGI,A549 NSCLC,56.8 µM
same,TGI,ACHN renal,66.5 µM
same,TGI,BT-549 breast,> 86.7 µM
same,TGI,CAKI-1 renal,> 100 µM
same,TGI,CCRF-CEM leukemia,> 43.5 µM
same,TGI,COLO 205 colon,> 100 µM
same,TGI,DU-145 prostate,> 100 µM
same,TGI,EKVX NSCLC,54.1 µM
same,TGI,HCC-2998 colon,76.8 µM
same,TGI,HCT-116 colon,34.8 µM
same,TGI,HCT-15 colon,> 81.5 µM
same,TGI,HL-60(TB) leukemia,26.2 µM
same,TGI,HOP-62 NSCLC,> 100 µM
same,TGI,HOP-92 NSCLC,> 63.3 µM
same,TGI,HS 578T breast,85 µM
same,TGI,HT29 colon,> 75.3 µM
same,TGI,IGROV1 ovarian,> 65.6 µM
same,TGI,K-562 leukemia,> 88 µM
same,TGI,KM12 colon,> 100 µM
same,TGI,LOX IMVI melanoma,> 50.6 µM
same,TGI,M14 melanoma,32.1 µM
same,TGI,MALME-3M melanoma,36.6 µM
same,TGI,MCF7 breast,49.9 µM
same,TGI,MDA-MB-231 breast,69.8 µM
same,TGI,MDA-MB-435,97.6 µM
same,TGI,MDA-N,37.2 µM
same,TGI,MOLT-4 leukemia,12.3 µM
same,TGI,NCI-H226 lung,85.2 µM
same,TGI,NCI-H23 lung,> 76.8 µM
same,TGI,NCI-H460 lung,31.6 µM
same,TGI,NCI-H522 lung,37.7 µM
same,TGI,NCI/ADR-RES ovarian,> 68.2 µM
same,TGI,OVCAR-3 ovarian,> 72.6 µM
same,TGI,OVCAR-4 ovarian,> 100 µM
same,TGI,OVCAR-5 ovarian,64.2 µM
same,TGI,OVCAR-8 ovarian,> 100 µM
same,TGI,PC-3 prostate,> 100 µM
same,TGI,RPMI-8226 leukemia,38.2 µM
same,TGI,RXF 393 renal,> 75.9 µM
same,TGI,SF-268 CNS,61.1 µM
same,TGI,SF-295 CNS,> 100 µM
same,TGI,SF-539 CNS,> 84.2 µM
same,TGI,SK-MEL-2 melanoma,52.6 µM
same,TGI,SK-MEL-28 melanoma,56.3 µM
same,TGI,SK-MEL-5 melanoma,32.5 µM
same,TGI,SK-OV-3 ovarian,> 100 µM
same,TGI,SN12C renal,41.6 µM
same,TGI,SNB-19 CNS,> 100 µM
same,TGI,SNB-75 CNS,> 100 µM
same,TGI,SR leukemia,16.2 µM
same,TGI,SW-620 colon,> 100 µM
same,TGI,T-47D breast,> 100 µM
same,TGI,TK-10 renal,> 100 µM
same,TGI,U251 CNS,> 100 µM
same,TGI,UACC-257 melanoma,> 70.4 µM
same,TGI,UACC-62 melanoma,31.8 µM
same,TGI,UO-31 renal,27.8 µM
